Assay results as given in patent publication US6623741B1, “Methods and compositions for inhibition of membrane fusion-associated events including RSV transmission” (Trimeris, Inc., priority 2000, dated 2003).
Values joined by “and” are separate entries in the source; they are usually repeats but may differ in a detail not shown here. Identical values can stand only once.

Experiments:
HR1 domain of RSV-F1 [1] = format: binding, respiratory syncytial virus; settings: 5 μg/ml proteinase-K, one hour at 37° C.
Experimental: Proteinase-K Protection Experiments:
(§1) Mixtures were treated with 5 μg/ml proteinase-K (Sigma, St. Louis, Mo.) or an equivalent volume of buffer, vortexed and then incubated for one hour at 37° C. Phenyl methyl sulfonyl fluoride (PMSF, Boehringer Mannheim, Indianapolis, Ind.) was added to achieve a 2 mM final concentration to stop proteolytic digestion. 20 μl of each sample was removed and added to 10 μl of a sample buffer (New England Biolabs, Boston, Mass.) containing 6 w/v% Sodium Dodecyl Sulfate (DDS), DTT, 187.5 mM TRIS, 30% glycerol and bromophenol blue. The mixtures were heated for five minutes at 90° C. 15 μl of the samples were run on a 10-20% Tricine polyacrylamide gel (Novex, San Diego, Calif.), stained with Coomassie brilliant blue and destained with a 10% methanol-10% acetic acid mixture (Fisher, Norcross, Ga.).

HR1 domain of RSV-F1 [2] = biological target: T1, HR1 domain of RSV-F1 (Human respiratory syncytial virus A, UniProt P03420); format: binding
T1 construct: made in house
T1 sequence (P03420 142-302): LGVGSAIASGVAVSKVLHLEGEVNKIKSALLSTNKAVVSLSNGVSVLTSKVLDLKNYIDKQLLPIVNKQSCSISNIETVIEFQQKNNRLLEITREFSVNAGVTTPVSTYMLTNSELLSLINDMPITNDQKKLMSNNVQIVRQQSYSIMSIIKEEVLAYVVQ
Experimental: Proteinase-K Protection Experiments:
as §1

[3] = Analytical ultracentrifugation (sedimentation equilibrium); format: physicochemical
Experimental: Analytical Ultracentrifugation:
Sedimentation equilibrium experiments were performed on a Beckman Optima XL-A analytical ultracentrifuge at 4° C. Six-channel cells (12 mm optical path length) were used with an An-60 Ti rotor operated at 13,500, 16,000, 17,000, 20,000, 21,000, 24,000, 25,000, 27,500, 30,000 and 35,000 rpm. The cell radii were scanned using 0.001 cm steps with 10 averages/scan. Data were analyzed using Beckman XLA data analysis software (version 3.01 for Windows) and Beckman-Origin software (version 3.78 for Windows). […] The partial specific volumes were held constant for all models considered.
Single data files were normalized to 270 nm absorbance values using Beer's Law. The data obtained with solutions containing the DP107-like peptides were then analyzed using a single ideal species model to determine a weight-averaged molecular weight (Mw). Diagnostic plots of Mw/Mw0 vs. rpm/rpm0 and Mw vs. radial concentration were used to test for sample homogeneity as described, e.g., by McRorie & Voelker, 1993, Self-Associating Systems in the Analytical Ultracentrifuge, Beckman Instruments, Inc., Palo Alto; and Yphantis et al., 1978, in Physical Aspects of Protein Interactions: Proceedings of the Symposium on Protein Interactions, American Chemical Society Meeting, Catsimpoolas, Ed., pp. 275-303, Elsevier, Miami Beach, Fla. When systematic residuals or a Mw higher than the monomer molecular weight indicated the presence of self-association, associative models such as monomer/trimer, monomer/tetramer and monomer/dimer/tetrarner were investigated. The suitability of a particular model (i.e., the goodness of fit) was judged by the trends observed in the residuals (Johnson & Straume, 1994, in Modern Analytical Ultracentrifugation, Schuster et al., eds., pp. 37-65, Birkhauser, Boston). Using the associative model which produced random residuals when fitting individual data files, a simultaneous, global, weighted fit of multiple data files (up to nine files with different concentrations and speeds) was performed to determine the association constant and 95% confidence intervals. To convert the resulting association constant from absorbance units to concentration units, it was assumed that the absorbance of the n-mer is n times that of the monomer.
The data obtained with DP107-like/DP178-like peptide mixtures were first analyzed with a single ideal species model. When a systematic trend in residuals coupled with the Mw not equal to a precise multimer of HR1+HR2 were obtained, and alternate fitting scheme was explored. For this approach, it was assumed that the solution contained fully associated HR1-HR2 complexes and unassociated DP107-like and DP178-like peptides. The mixtures were analyzed with a two-ideal species model, choosing one species to have a molecular weight of either 28,269 Da (corresponding to three DP107-like plus three DP178-like peptides) or […] (corresponding to four DP107-like plus four DP178-like peptides).

[4] = biological target: T2, MBP fusion protein containing the ectodomain of the HIV-1 fusion protein gp41 (M41Δ178) (Human immunodeficiency virus type 1 group M subtype B, UniProt P03377); settings: control for non-specific binding
T2 construct: made by cloning the DNA fragment corresponding to gp41 amino acids 540-642 into the Xmn I site of pMal-p2; made in house
T2 sequence (P03377 540-642, stated change not applied): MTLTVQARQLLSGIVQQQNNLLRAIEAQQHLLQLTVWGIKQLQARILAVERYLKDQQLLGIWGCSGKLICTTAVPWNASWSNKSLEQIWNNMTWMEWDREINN
Experimental: as §1

[5] = biological target: T3, DP107-like domain of the RSV F1-protein (MF5.1 fusion protein) (Human respiratory syncytial virus A, UniProt P03420); assay: biochemical; format: binding; settings: binding affinity for the DP107-like domain of RSV F1 protein
T3 construct: made in house
T3 sequence (P03420 142-302): as the sequence (P03420 142-302) above
Experimental: After incubation and washing, unbound Fab-d is removed from the plates and bound Fab-d is quantitated. A no-inhibitor control should also be conducted.
Such an assay takes advantage of accepted radioligand and receptor binding principles. (See, for example, Yamamura, H. I. et al., 1985, “Neurotransmitter Receptor Binding”, 2nd ed., Raven Press, NY.) As above, M41Δ78 is immobilized onto a solid support such as a microtiter well. […] Specific binding to M41Δ78 is defined as the difference of the binding of the labeled DP178 preparation in the microtiter wells (totals) and the binding in identical wells containing, in addition, excess unlabeled DP178 (nonspecifics).
Specifically, the DNA sequence corresponding amino acid residues 142-302 of the RSV F1 protein was amplified by PCR and cloned into the Xmn I site of the expression vector pMal-p2 (New England Biolab) to give MF5.1. These amino acid residues correspond to the extracellular domain of the RSV F1 protein including its DP107 region but excluding the DP178 region.
Cell fusion assays were performed with each of the peptides as described in Section 17 above.

## CC[C@H](C)[C@H](NC(=O)[C@H](Cc1ccccc1)NC(=O)[C@H](C)NC(=O)[C@H](CC(C)C)NC(=O)[C@H](CO)NC(=O)[C@H](CCC(N)=O)NC(=O)[C@H](CC(N)=O)NC(=O)[C@@H](NC(=O)[C@H](CCCCN)NC(=O)[C@H](CCC(=O)O)NC(=O)[C@H](CC(N)=O)NC(=O)[C@@H](NC(=O)[C@H](CCC(N)=O)NC(=O)[C@H](CO)NC(=O)[C@@H](NC(=O)[C@H](CO)NC(=O)[C@H](C)NC(=O)[C@H](CC(=O)O)NC(=O)[C@H](Cc1ccccc1)NC(=O)[C@H](CCC(=O)O)NC(=O)[C@H](CC(=O)O)NC(=O)[C@H](CO)NC(=O)[C@@H]1CCCN1C(=O)[C@H](Cc1ccccc1)NC(=O)[C@@H](NC(C)=O)C(C)C)[C@@H](C)CC)C(C)C)[C@@H](C)CC)C(=O)N[C@@H](CCCNC(=N)N)C(=O)N[C@@H](CCCCN)C(=O)N[C@@H](CO)C(=O)N[C@@H](CC(=O)O)C(=O)N[C@@H](CCC(=O)O)C(=O)N[C@@H](CC(C)C)C(=O)N[C@@H](CC(C)C)C(=O)N[C@@H](Cc1c[nH]cn1)C(=O)N[C@@H](CC(N)=O)C(=O)N[C@H](C(N)=O)C(C)C [Peptide T112]
HR1 domain of RSV-F1 [1]
  proteinase-K digestion of the peptide alone: digest the peptide entiretly
HR1 domain of RSV-F1 [2]
  binding to the HR1 domain of RSV-F1 and protection from proteolytic digestion: binds to the HR1 domain of RSV-F1 and thereby protects the domain from proteolytic digestion
[3]
  oligomerization state in solution (in words): behaves as a monomer
[3]; 50 μM, 25,000, 30,000 and 35,000 rpm
  Mw value: 3,984 Da
[4]
  binding to MBP fusion protein containing the HIV-1 gp41 ectodomain: does not bind
[5]
  Kd: 2 nM and 1 nM
